Data: patent publication US8637556B2, “Linked Myc-max small molecule inhibitors” (University of Pittsburgh—Of the Commonwealth System of …, priority 2009, dated 2014)
Like-named read-outs stand apart in the source and are kept apart here.

Columns and labels:
[1] = tested on: HL60 promyelocytic leukemia cells; test: HL60 cell growth inhibition (MTT assay); assay type: cell-based; details: Homo sapiens, HL-60
Experimental: (§1) These assays were performed as previously described using HL60 promyelocytic leukemia cells and Daudi Burkitt lymphoma cells, each of which expresses high levels of endogenous c-Myc (Wang, H. et al. Mol. Cancer Ther. 6, 2399-408 (2007)). As controls for non-specific effects of bivalent compounds, we utilized a c-Myc nulllizygous strain of rat fibroblasts (Mateyak, M. K., et al. Cell Growth & Differentiation 8, 1039-48 (1997)) expressing the c-Myc target genes MT-MC1 and HMGAIb, each of which restores a normal growth rate as well as the TGR1 fibroblast line from which the nullizygous line was derived (Wang, H. et al. Mol. Cancer Ther. 6, 2399-408 (2007); Mateyak, M. K., et al. Cell Growth & Differentiation 8, 1039-48 (1997); and Rothermund, K. et al. Cancer Research 65, 2097-107 (2005)). […] Cell quantification was performed on triplicate wells over the ensuing 4-5 days without changing the medium by measuring the absorbance at 490 nm using the MTT assay (Mosmann, T. Journal of Immunological Methods 65, 55-63 (1983)). IC50 values were estimated from linear regression of the inhibition data at the third day of each experiment.
(§2) We evaluated the efficacy of the linked compounds 11, 12, 13, 16, 17, 18 in inhibiting the c-Myc-Max interaction by measuring the binding of a target DNA sequence (E-Box) by the protein heterodimers in an electrophoretic mobility shift assay (EMSA). […] A fluorinated substitute of 14, 24, the choice of which was based upon the results of structure activity relationship studies described in Wang, H. et al. (Mol. Cancer Ther. 6, 2399-408 (2007)), was employed at this purpose (Muller, K., et al. Science 317, 1881-6 (2007) and Kirk, K. L. Current Topics in Medicinal Chemistry 6, 1447-56 (2006)).

[2] = tested on: Daudi Burkitt lymphoma cells; test: Burkitt's lymphoma cell growth inhibition (MTT assay); assay type: cell-based; details: Homo sapiens
Experimental: as §1, §2

[3] = biological target: T1, c-Myc-Max heterodimer binding to E-Box DNA (Homo sapiens, UniProt P01106); test: Electrophoretic mobility shift assay (EMSA) of c-Myc-Max DNA binding; assay type: biochemical; details: c-Myc-Max dimer 1 μM, 10 nM E-Box DNA
T1 construct: 6xHis with TEV site (N, cleaved yes); made in house; host or cells: c-Myc: E. coli BL21DE3(pLysS); Max: E. coli M15(pRep4)
T1 sequence (P01106 368-452, one chain of several): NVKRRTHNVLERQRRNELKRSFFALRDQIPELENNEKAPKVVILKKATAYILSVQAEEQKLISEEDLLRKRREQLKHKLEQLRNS
Experimental: FIG. 17. Inhibition of c-Myc-Max DNA binding measured by electrophoretic mobility shift assay (EMSA). a. Inhibition by bivalent compounds 11, 12, 13. b. Inhibition by bivalent compounds 16, 17, 18. c. Inhibition by monovalent compounds 10074-G5 (1) and 10058-F4 (2). Inhibitor concentrations are micromolar. The c-Myc-Max dimer concentration was 1 μM in a and b, 50 nM in c.
Reactions containing c-Myc353-437 and varying concentrations of each tested inhibitor in a buffer containing 1×PBS, 1 mM EDTA; 0.1% NP40; 5% Glycerol; 1 mM DTT; 0.4 mg/mL BSA were incubated for 30 minutes, followed by addition of pre-mixed p21 Max and a synthetic double-stranded oligonucleotide containing a consensus c-Myc-binding “E-Box” element (CACGTG). The final protein concentration was 1 μM for both c-Myc353-437 and p21 Max, 10 nM E-Box DNA. The binding reaction was then allowed to proceed for an additional 15 minutes before loading on an 8% running gel (80:1 poly acrylamide:bis-acrylamide). Control experiments with the monovalent parent inhibitors 1 and 2 were similarly performed using a lower (50 nM) concentration of each protein component. Gels were run at 20° C. in 0.5×TBE and scanned on a BioRad FX molecular imager. Data were analyzed with BioRad Quantity One software.
We evaluated the efficacy of the linked compounds 11, 12, 13, 16, 17, 18 in inhibiting the c-Myc-Max interaction by measuring the binding of a target DNA sequence (E-Box) by the protein heterodimers in an electrophoretic mobility shift assay (EMSA). […] Of these, the best was compound 16 (LINK N1), with an IC50 in the 0.5-1.0 μM in both of the above cell lines. In contrast, higher concentrations of the compounds were required to inhibit the growth of the non-transformed rat fibroblast line TGR1 or of TGR1-derived c-Myc null rat fibroblasts reconstituted with either of the c-Myc target genes HMGA1b or MT-MC1, which restore a normal growth rate. […] The lower, albeit promising, potency of the bivalent inhibitors in cell based assays compared to ones involving purified components, and the partial lack of correlation between the first and the latter, may reflect a generally poor cell permeability of these compounds, which are relatively bulky and display higher than optimal polar surface areas. The effects of the linker chain connectivity on the compounds conformation and shape may also affect their cell permeability in a different manner from what observed for their c-Myc binding affinity, resulting in the aforementioned incomplete correlation between their performance in cell based and purified components assays (FIG. 19). […]

[4] = Table 3, MTT, third day, read-out: Growth inhibition HL60
[5] = Table 3, MTT, third day, read-out: Growth inhibition BL

Compound | IC50 [1, 4] [µM] | IC50 [2, 5] [µM] | Disruption of c-Myc-Max DNA (E-Box) binding [3] | IC50 ([1]; HL60 cells, read-out: IC50) [µM] | IC50 ([2]; BL cells, read-out: IC50) [µM]
O=C1NC(=S)S/C1=C\c1ccc(C(=O)NCCCCCNC(=O)c2cccc(Nc3ccc([N+](=O)[O-])c4nonc34)c2)cc1 [compound 12, N-[5-({3-[(7-nitro-2,1,3-benzoxadiazol-4-yl)amino]phenyl}formamido)pentyl]-4-{[(5Z)-4-oxo-2-sulfanylidene-1,3-thiazolidin-5-ylidene]methyl}benzamide] | > 30 | 20 to 35 | Strong disruption of DNA binding |  | 
O=C1NC(=S)SC1=Cc1ccc(C(=O)NCCCCCNC(=O)c2ccc(Nc3ccc([N+](=O)[O-])c4nonc34)cc2)cc1 [compound 13] | 6 | 5 to 10 | Strong disruption of DNA binding |  | 
CCc1ccc(/C=C2\SC(=O)N(CCCCCCNC(=O)c3ccccc3Nc3ccc([N+](=O)[O-])c4nonc34)C2=O)cc1 [compound 16, N-{6-[(5Z)-5-[(4-ethylphenyl)methylidene]-2,4-dioxo-1,3-thiazolidin-3-yl]hexyl}-2-[(7-nitro-2,1,3-benzoxadiazol-4-yl)amino]benzamide amine] | 0.5 to 0.7 | 0.7 to 0.9 | Strong disruption of DNA binding | 0.5 to 1 | 0.5 to 1
CCc1ccc(C=C2SC(=O)N(CCCCCCNC(=O)c3cccc(Nc4ccc([N+](=O)[O-])c5nonc45)c3)C2=O)cc1 [compound 17] | > 30 | > 10 | Strong disruption of DNA binding |  | 
